What is called pIC50 is the IC50 on a negative log10 scale, so that one unit is a factor of ten.

pIC50: −log10 of the molar value.

One experiment concerns the target Coagulation factor XIa (Homo sapiens (Human), UniProt P03951). The experiment in a line: Factor XIa Assay. Conditions: human factor XIa 0.04 nM, substrate GPR-AFC, 30 min pre-incubation at 25° C., pH 7.4; read-out: FXIa IC50. It counts as biochemical.
Another experiment deals with Human plasma kallikrein (Homo sapiens (Human), UniProt P03952). The experiment is described as follows: Plasma Kallikrein Assay. It counts as biochemical. Particulars: purified Human plasma kallikrein 0.5 nM, substrate Acetyl-K-P-R-AFC, pH 7.4; read-out: PKal IC50. The method, boiled down:
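Purified human plasma kallikrein (0.5 nM) was tested in 50 mM HEPES pH 7.4 with 150 mM NaCl, 5 mM CaCl2 and 0.1% PEG 8000, using Acetyl-K-P-R-AFC substrate at a final concentration ≤0.2 Km after enzyme–inhibitor equilibration. Initial-rate fluorescence was read at 405/510 nm. IC50 came from a four-parameter fit, and Ki from Cheng–Prusoff.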

Chain of Human plasma kallikrein (P03952 391-638 limits assumed): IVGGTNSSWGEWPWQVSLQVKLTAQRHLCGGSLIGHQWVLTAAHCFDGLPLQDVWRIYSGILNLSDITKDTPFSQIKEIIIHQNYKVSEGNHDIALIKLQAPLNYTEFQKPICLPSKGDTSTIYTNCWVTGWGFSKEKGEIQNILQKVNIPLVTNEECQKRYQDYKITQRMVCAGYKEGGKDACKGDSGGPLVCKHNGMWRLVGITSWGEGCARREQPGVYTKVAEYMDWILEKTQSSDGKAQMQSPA
Chain of Human plasma kallikrein (P03952 20-390 partner limits assumed): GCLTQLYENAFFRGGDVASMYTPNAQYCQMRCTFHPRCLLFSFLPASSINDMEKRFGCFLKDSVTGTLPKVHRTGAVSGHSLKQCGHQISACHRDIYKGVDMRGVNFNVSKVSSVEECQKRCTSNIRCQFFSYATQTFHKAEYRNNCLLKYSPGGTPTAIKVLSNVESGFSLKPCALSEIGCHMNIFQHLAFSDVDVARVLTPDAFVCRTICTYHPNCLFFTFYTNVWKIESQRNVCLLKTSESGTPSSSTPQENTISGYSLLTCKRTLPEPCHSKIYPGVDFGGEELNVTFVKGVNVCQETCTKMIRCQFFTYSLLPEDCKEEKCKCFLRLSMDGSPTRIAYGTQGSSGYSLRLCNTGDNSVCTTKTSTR
Chain of Coagulation factor XIa (P03951 388-625 limits assumed): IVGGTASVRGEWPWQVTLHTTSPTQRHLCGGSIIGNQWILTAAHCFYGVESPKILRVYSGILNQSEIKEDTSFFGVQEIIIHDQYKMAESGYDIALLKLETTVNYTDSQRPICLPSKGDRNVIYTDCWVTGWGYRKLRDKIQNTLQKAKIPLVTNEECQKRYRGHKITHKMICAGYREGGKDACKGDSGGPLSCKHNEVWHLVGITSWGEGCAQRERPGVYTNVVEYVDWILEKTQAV
Chain of Coagulation factor XIa (P03951 19-387 partner limits assumed): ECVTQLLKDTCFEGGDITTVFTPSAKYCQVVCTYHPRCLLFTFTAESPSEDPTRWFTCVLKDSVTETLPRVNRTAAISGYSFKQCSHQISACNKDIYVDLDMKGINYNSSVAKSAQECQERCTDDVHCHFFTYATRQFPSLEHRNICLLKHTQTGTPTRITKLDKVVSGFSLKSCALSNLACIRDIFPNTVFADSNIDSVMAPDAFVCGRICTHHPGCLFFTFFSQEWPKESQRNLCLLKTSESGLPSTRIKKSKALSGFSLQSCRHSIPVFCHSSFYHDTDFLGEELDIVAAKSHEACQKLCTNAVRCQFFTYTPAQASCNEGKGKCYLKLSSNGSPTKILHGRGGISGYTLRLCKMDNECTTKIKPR

For the molecule `O=C1Nc2ccc(Cl)c(F)c2[C@]2(CCN(c3cncc(C(=O)NCc4ccc(N5CCCCC5)nc4)n3)C2)O1` [Example 41, (S)-6-(6-Chloro-5-fluoro-2-oxo-1,2-dihydrospiro[benzo[d][1,3]oxazine-4,3′-pyrrolidin]-1′-yl)-N-((6-(piperidin-1-yl)pyridin-3-yl)methyl)pyrazine-2-carboxamide], the negative-log IC50 (pIC50) on Coagulation factor XIa was 5.00; at Human plasma kallikrein it was 7.45.
For `Cc1cnn(Cc2ccc(CNC(=O)c3cncc(N4CC[C@]5(C4)OC(=O)Nc4ccc(Cl)c(F)c45)c3)cc2)c1` [Example 26, (S)-5-(6-Chloro-5-fluoro-2-oxo-1,2-dihydrospiro[benzo[d][1,3]oxazine-4,3′-pyrrolidin]-1′-yl)-N-(4-((4-methyl-1H-pyrazol-1-yl)methyl)benzyl)nicotinamide], the pIC50 at Coagulation factor XIa is 5.00; on Human plasma kallikrein, 8.51.

For the origin of these results see patent US20240190892A1, “PLASMA KALLIKREIN INHIBITORS” (Merck Sharp & Dohme LLC, priority 2021, published 2024).
